Results published in the supplement of paper PMC10307832.

Columns and labels:
Experiment in all cases: relative viability (nuclei count vs DMSO), 5 days (fraction); higher = more cells survive
[1] = compound: CC1=CC=C(C=C1)C(=O)CN2C3=C(CCCC3)SC2=N [Pifithrin_alpha] + NC(=O)Nc1cc(-c2cccc(F)c2)sc1C(=O)N[C@H]1CCCNC1 [AZD7762] (partner 0.2 µM)
In short: (§1)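 One day after seeding in 1536-well plates, lung cancer cell lines were dosed by pin tool. Dosing was either single-drug or a fixed anchor-drug dose plus five library-drug doses (not always all listed) in √10 steps. After 5 days, nuclei were stained in one fix-and-stain step and counted on 4× images, and relative viability is the nuclei count of treated wells over that of vehicle wells, given as the median of duplicate plates.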

[2] = compound: CC1=CC=C(C=C1)C(=O)CN2C3=C(CCCC3)SC2=N [Pifithrin_alpha] + Nc1nc2[nH]cc(CCc3ccc(C(=O)N[C@@H](CCC(=O)O)C(=O)O)cc3)c2c(=O)[nH]1 [Pemetrexed] (partner 0.2 µM)
In short: as §1

[3] = compound: CC1=CC=C(C=C1)C(=O)CN2C3=C(CCCC3)SC2=N [Pifithrin_alpha] + Nc1ncn([C@H]2C[C@H](O)[C@@H](CO)O2)c(=O)n1 [Decitabine] (partner 2 µM)
In short: as §1

[4] = compound: Nc1nc(Nc2ccc3c(c2)CC[C@@H](N2CCCC2)CC3)nn1-c1cc2c(nn1)-c1ccccc1CCC2 [Bemcentinib] + CC(=O)Nc1cccc(-n2c(=O)n(C3CC3)c(=O)c3c(Nc4ccc(I)cc4F)n(C)c(=O)c(C)c32)c1 [Trametinib] (partner 0.02 µM)
In short: as §1

Cell Line	relative viability ([1]; first compound 1 µM)	relative viability ([1]; first compound 3.162 µM)	relative viability ([1]; first compound 10 µM)	relative viability ([1]; first compound 31.62 µM)	relative viability ([1]; first compound 100 µM)	relative viability ([2]; first compound 1 µM)	relative viability ([2]; first compound 3.162 µM)	relative viability ([2]; first compound 10 µM)	relative viability ([2]; first compound 31.62 µM)	relative viability ([2]; first compound 100 µM)	relative viability ([3]; first compound 1 µM)	relative viability ([3]; first compound 3.162 µM)	relative viability ([3]; first compound 10 µM)	relative viability ([3]; first compound 31.62 µM)	relative viability ([3]; first compound 100 µM)	relative viability ([4]; first compound 0.04 µM)	relative viability ([4]; first compound 0.1265 µM)	relative viability ([4]; first compound 0.4 µM)	relative viability ([4]; first compound 1.265 µM)	relative viability ([4]; first compound 4 µM)
HOP-62	1.24	0.803	0.769	0.659	0.809	0.209	0.4	0.38	0.304	0.441	0.233	0.167	0.232	0.218	0.263	0.341	0.337	0.402	0.395	0.458
LC-2-ad	0.969	0.849	0.705	0.6	0.642	0.307	0.256	0.293	0.263	0.251	0.786	0.73	0.811	0.683	0.675	0.946	0.963	0.952	0.98	0.962
LCLC-97TM1	0.222	0.231	0.382		0.239		0.184	0.183		0.15		0.272	0.235		0.121	0.206	0.195	0.2	0.232	0.2
LCLC-103H	0.792	0.846	0.791	0.721	0.85	0.46	0.433	0.436	0.458	0.493	0.659	0.7	0.708	0.636	0.65	0.706	0.736	0.679	0.712	0.707
LK-2	0.301	0.571	0.58		0.346	0.188	0.288	0.244		0.327	0.202	0.266	0.309	0.224	0.316	0.798	0.908	0.629	0.795	0.885
LOU-NH91	0.625	0.755	0.683	0.589	0.604	0.398	0.362	0.307	0.332	0.359	0.758	0.79	0.808	0.705	0.742	0.807	0.792	0.849	0.822	0.789
LU99A	0.359	0.459	0.341		0.352	0.183	0.243	0.19		0.172	0.834	0.919	1.04		0.863	0.516	0.641	0.55	0.596	0.51
LXF-289	1.16	1.12	1.23	1.12	1.13	0.908	0.985	0.921	0.767	0.943	0.359	0.335	0.388	0.366	0.369	0.705	0.681	0.648	0.7	0.773
NCI-H520						0.721	0.741	0.727	0.461	0.699	0.595	0.481	0.578	0.397	0.507	0.723	0.859	0.706	0.713	0.733
NCI-H661						0.937	0.922	0.962	0.834	0.888	0.536	0.591	0.587	0.542	0.469	0.62	0.678	0.604	0.553	0.595
NCI-H727	0.478	0.57	0.571	0.51	0.48						0.328	0.782	0.835	0.731	0.749	0.39	0.381	0.385	0.424	0.414
NCI-H1563						0.54	0.813	0.817	0.769	0.749										
NCI-H1650						0.358	0.366	0.341	0.331	0.392	0.382	0.442	0.593	0.32	0.406	0.483	0.684	0.617	0.594	0.459
NCI-H1703		0.139	0.101	0.182	0.109															
NCI-H2009						0.985	1.01	0.949	0.702	0.944	0.361	0.349	0.404	0.344	0.409	0.231	0.321	0.232	0.273	0.268
NCI-H2023						0.28	0.254	0.215	0.157	0.153	0.237	0.211	0.23	0.201	0.242	0.564	0.675	0.572	0.762	0.657
NCI-H2228						0.406	0.416	0.335	0.252	0.298						0.202	0.652	0.533	0.651	0.565
SK-LU-1						1.03	1.03	1.07	0.752	1.14	0.646	0.763	0.622	0.535	0.698	0.463	0.514	0.493	0.547	0.531
SK-MES-1						0.84	0.845	0.863	0.494	0.623	0.351	0.424	0.353	0.411	0.352	0.625	0.587	0.561	0.587	0.61
SW 1573							1.03	0.964	0.593	0.808	0.516	0.449	0.509		0.587	0.521	0.488	0.658	0.572	0.654
UMC-11						0.866	0.869	0.824	0.723	1.08	0.551	0.601	0.597	0.525	0.595	0.558	0.876	0.712	0.779	0.744
